This passage reports melting point results from a melting point compilation (Tetko et al.; mined from patent text by program, amines drawn as free bases though some values may be those of a salt).

The structures appear in SMILES notation.

`Cc1cc2c(C(=O)C3=C(O)C4CCC(C4)C3=O)ccc(S(C)=O)c2o1` (centres undefined): the melting point (usually the temperature, or range, at which the solid turns liquid) fell in the range of 243 to 244 °C.

Consider `CC(C)(C)c1csc(-c2cc3cc(CCC(=O)O)ccc3o2)n1`, for which the melting point was 157 to 160 °C.

`Nc1cc(-n2c(=O)oc3c(c2=O)CCC3)c(F)cc1Cl` registered a melting point of 93 °C.

For `CCOC(=O)c1cc(-c2cc(Br)cc(Br)c2)cnc1C`, the melting point was in the range of 100 to 102 °C.

On to `COc1cc2c3ccc(OC)c(OC)c3n(C(=O)c3ccc4ccccc4c3)c2cc1OC`, for which the melting point lay in the range of 137 to 141 °C.

The compound `Cc1ccc2[nH]c(=O)n(CCCN3CCC(C(=O)c4ccc(F)cc4)CC3)c2c1` gave a melting point of 150 °C.

In the case of `CC(C)(C)OC(=O)[C@@H]1CC[C@@H]2C=C[C@H]3CCN(C(=O)OC(C)(C)C)[C@@H]3C(=O)N21`, the melting point lay within 147 to 149 °C.

Consider `Nc1cccnc1Nc1cccc(-c2cccnc2)c1`, for which the melting point is 159 to 160 °C.

In the case of `CCCNC(=O)Nc1nc(-c2cc(C)cc(C)c2)c(-c2ccncc2)s1`, the melting point fell in the range of 128 to 130 °C.

Consider `Cn1cc(-c2ccccc2)c(=O)c(-c2ccc(Cl)c(C(F)(F)F)c2)c1`, for which the melting point is 154 to 155 °C.

The compound `C=CC(=O)Nc1cccc(-c2ccnc3c(C(=O)c4cccs4)cnn23)c1` gave a melting point of 192 to 194 °C.

With `O=C1C(=O)c2ccccc2C2=C1SCC1(CCN(CCCOc3ccc(Cl)cc3)CC1)O2`, the melting point fell in the range of 130 to 132 °C.

In the case of `CC(=O)OCOC(c1ccccc1)n1cc(F)c(=O)[nH]c1=O` (centres undefined), the melting point lay within 108 to 109 °C.

Regarding `CCOC(=O)c1c(CN(CC)CC)nc2n(Cc3ccccc3)c3ccccc3n12`, the melting point lay within 44 to 45 °C.

`O=c1c(Oc2ccccc2)nc2ccccc2n1-c1ccc(Cl)cc1` displayed a melting point of 239 to 241 °C.

In turn, `Cc1c(C)c2c(c(C)c1NC(=O)N1CCCC1)C(c1ccc(C(C)C)cc1)CO2` (centres undefined) displayed a melting point of 186 to 188 °C.

With `COCCn1cc(-c2ccccc2)[nH]c1=O`, the melting point is 152 to 153 °C.

Compound `CCOc1cc(Cl)ccc1C=NNC(=N)NN=Cc1ccc(Cl)cc1OCC` came in with a melting point of 180 to 182 °C.

`CC(=O)N1CC(CCN2CCC(c3ccccc3)CC2)c2ccccc21` (centres undefined): the melting point fell in the range of 92 to 93 °C.

Compound `COc1cc2c(cc1OC)C1=NNC(c3ccc(Cl)cc3)C1CCC2` (centres undefined) registered a melting point of 160 to 163 °C.

In turn, `O=C1CCC(c2ccc3c(c2)NC(=O)CO3)=NN1` had a melting point of 274 to 275 °C.

On to `NCCc1c2n(c3ccccc13)CCNCC2`, for which the melting point was 77 to 80 °C.

`C[Si](C)(C)c1cn(Cc2ccc(C#N)cc2)nn1` displayed a melting point of 83 °C.

Compound `CC(C)c1cc(-c2ccc(F)cc2)n(-c2ccccn2)n1` gave a melting point of 80 to 81 °C.

`COC1=CCC2=C(CC[C@@H]3[C@@H]2CC[C@@]2(C)[C@H]3CCC23CC(O)CO3)C1` (some centres undefined) gave a melting point of 152 to 155 °C.

For `CC(C)(C)c1ccc(C(=O)Nc2cn3cc(-n4ccnc4)ccc3n2)cc1`, the melting point was 289 to 291 °C.

As to `O=C(NCc1ccc(Br)cc1)Nc1cccc2[nH]ccc12`, the melting point was determined as 198 °C.

With `CCOC(=O)CNC(=O)Oc1c(C)n(C)ccc1=O`, the melting point lay within 132 to 135 °C.

As to `Cc1cc(-c2cnn3c(O)ncnc23)ccc1S(C)=O` (centres undefined), the melting point is 281 to 282 °C.

In turn, `COc1cc(C(C)C)c(OC(C#N)=CNc2ccccc2)cc1I` registered a melting point of 170 °C.

The compound `O=C1CCCN1CC1CCN(c2nc(C(F)(F)F)ncc2O)CC1` showed a melting point of 213 to 215 °C.

Take `CN1CCC(CNc2ncc3cc(-c4ccccc4Cl)c(=O)[nH]c3n2)CC1`: the melting point lay in the range of 213 to 220 °C.

In turn, `Cc1cc2oc(=O)c3c(c2cc1C)CCN(CC(C)N(C)C)C3` (centres undefined) showed a melting point of 105 to 107 °C.

For `COc1cccc2c(=O)c3c(Cl)ccc([N+](=O)[O-])c3[nH]c12`, the melting point was 315 to 320 °C.

`Oc1ccc(-c2nn(-c3ccccc3F)c3cc(O)ccc23)c(O)c1` registered a melting point above 205 °C.

In turn, `CCOc1nc(N)nc(N2CCc3ccccc3CC2)c1C#N` returned a melting point of 195 to 203 °C.

In turn, `CCN(CC)CCCN1CCN(CCN2CCCCC2)C1=C(C#N)C#N` returned a melting point of 58 to 61 °C.

In turn, `CC(=O)C1C(=O)N(C(=O)Nc2ccccc2)c2ccccc21` (centres undefined) had a melting point of 171 to 173 °C.

Turning to `O=C(NC1CCCCC1)Oc1ccc(Oc2ccccc2)cc1`, the melting point lay in the range of 166 to 168 °C.

In turn, `CC(C)(C)OC(=O)N1CCC(C(=O)Nc2ccccc2Oc2ccc(OC(F)(F)F)cc2)CC1` came in with a melting point of 45 to 48 °C.

For the compound `O=CNCS(=O)(=O)c1ccccc1`, the melting point is 106 to 107 °C.

In turn, `Nc1cc(Br)ccc1-c1ccc(Br)cc1N` displayed a melting point of 118 to 119 °C.

Take `CCc1cn(C2OC(CNC(=O)C(C)Oc3cc(OC)c(Cl)cc3Cl)C(O)C2F)c(=O)[nH]c1=O` (centres undefined): the melting point lay within 151 to 156 °C.

`CCCCC(=O)c1c(-c2ccc3cc(O)ccc3c2)oc2ccccc12` displayed a melting point of 148 to 149 °C.

On to `O=c1[nH]c(=S)[nH]c2ccnn12`, for which the melting point was determined as 295 °C.

In the case of `O=c1ccc2cccc(-c3cccc4ccccc34)c2[nH]1`, the melting point lay within 198 to 199 °C.

On to `CCCc1c(OCCCSc2ccc(C(C)=O)c(OCCCC(=O)OCC)c2CCC)ccc(C(C)=O)c1O`, for which the melting point lay within 87 to 88 °C.

In turn, `Cn1c(=O)n(CC2(C)Cn3cc([N+](=O)[O-])nc3O2)c2ccccc21` (centres undefined) came in with a melting point of 203 to 204 °C.

For `CC(C)ON=Cc1cc(-n2c(=O)cc(C(F)(F)F)[nH]c2=O)ccc1Cl`, the melting point was in the range of 191 to 193 °C.

Turning to `O=C(NCCOc1ncc(C(F)(F)F)cc1Cl)c1cc([N+](=O)[O-])ccc1Cl`, the melting point was in the range of 126 to 127 °C.

`CCC1(CC)OC(=O)c2cc(N)ccc21` came in with a melting point of 153 to 154 °C.

As for `CN(c1ccc(O)cc1)c1nc2cc(Cl)ccc2s1`, the melting point is 238 to 240 °C.

`COC(=O)c1cc(N(CCBr)CCBr)c(S(C)(=O)=O)cc1[N+](=O)[O-]` returned a melting point of 161 to 162 °C.

The compound `CC(c1ccc(-c2ccccc2)c(F)c1)c1nc(CC(=O)O)no1` (centres undefined) registered a melting point of 100 to 102 °C.

Take `CC(=O)NC[C@H]1CN(c2ccc(N3CCC(n4nnc(N5CCN(Cc6ccccc6)CC5)n4)CC3)c(F)c2)C(=O)O1`: the melting point lay within 202 to 204 °C.

Turning to `Cc1cccc(-c2nc(CCOc3ccc(/C=C/C=O)cc3)c(C)o2)c1`, the melting point lay in the range of 110 to 111 °C.

For the compound `O=C(c1ccc(I)cc1)N1CCCCC1`, the melting point fell in the range of 126 to 127 °C.

As for `O=C1CCC(N2C(=O)c3cccc(CNC(=O)Nc4ccc(Cl)c(Cl)c4)c3C2=O)C(=O)N1` (centres undefined), the melting point was in the range of 241 to 243 °C.

In turn, `O=[N+]([O-])c1ccccc1Cc1n[nH]c(O)n1` yielded a melting point of 210 to 212 °C.

Compound `N#CCc1cc(O)cc2cc(-c3ccc(O)c(F)c3)oc12` gave a melting point of 242 to 244 °C.

In the case of `Cc1nc(-c2ccc(C(F)(F)F)cc2)sc1CSc1ccc(OCC(=O)O)cc1`, the melting point came out at 190 °C.

`C(=C\c1nc(COc2ccc(CCCCn3cncn3)cc2)co1)/c1ccccc1` displayed a melting point of 94 to 95 °C.

Compound `CCCn1cc(Cc2ccc(C(=O)NS(=O)(=O)c3ccccc3C)cc2OC)c2cc(CC3CCN(CC)C3=O)ccc21` (centres undefined) displayed a melting point of 107 to 115 °C.

Turning to `O=C(O)C(=NOC1CCCC1)c1ccco1`, the melting point lay in the range of 96.6 to 97.7 °C.
